Results on 13 compounds are retold here after patent publication US11420944B2, “Voltage-dependent t-type calcium channel blocker” (Nippon Chemiphar Co., Ltd., priority 2016, dated 2022).

Molecules are shown by their SMILES. Like-named read-outs stand apart in the source and are kept apart here.

Data set [1] has as its target T1, CYP3A4 (Homo sapiens, UniProt P08684).
T1 construct: purchased Cypex, Ltd; host or cells: E. coli membranes (Bactosomes)
Put plainly: Evaluation of CYP3A4 activity inhibitory action. The format is in vitro ADME. To be noted: Human CYP3A4BR EasyCYP Bactosomes, 7-Benzyloxy-4-(trifluoromethyl)-coumarin. The method, then:
Evaluation of CYP3A4 Activity Inhibitory Action
To a 50 mM potassium phosphate buffer solution (pH 7.4), 5 nM Human CYP3A4BR EasyCYP Bactosomes (Cypex, Ltd.), 50 μM 7-Benzyloxy-4-(trifluoromethyl)-coumarin, cofactor mix (0.0081 mM β-NADP^+, 0.4 mM G-6-P, 0.4 mM MgCl2, and 0.2 U/mL G-6-P DH(Y)), and 0.01% Pluronic F-127 were added, and the mixture was incubated for 45 minutes at 37° C. The reaction was initiated by adding the cofactor mix. After the incubation, 0.5 M Tris base/acetonitrile (20:80) was added thereto as a reaction terminating liquid, and the resulting mixture was stirred. Subsequently, the fluorescence intensity (excitation: 405 nm, emission: 535 nm) was measured. The reaction was carried out in duplicate. The results are presented as the inhibition rate at 10 μM of the test compound.

The target in data set [2] is T2, human Cav3.2 channels (Homo sapiens, UniProt O95180).
T2 construct: expressed in transfected cells; host or cells: HEK293 cells (ATCC No. CRL-1573), plasmid pcDNA3.1(+)
T2 sequence (O95180 whole entry): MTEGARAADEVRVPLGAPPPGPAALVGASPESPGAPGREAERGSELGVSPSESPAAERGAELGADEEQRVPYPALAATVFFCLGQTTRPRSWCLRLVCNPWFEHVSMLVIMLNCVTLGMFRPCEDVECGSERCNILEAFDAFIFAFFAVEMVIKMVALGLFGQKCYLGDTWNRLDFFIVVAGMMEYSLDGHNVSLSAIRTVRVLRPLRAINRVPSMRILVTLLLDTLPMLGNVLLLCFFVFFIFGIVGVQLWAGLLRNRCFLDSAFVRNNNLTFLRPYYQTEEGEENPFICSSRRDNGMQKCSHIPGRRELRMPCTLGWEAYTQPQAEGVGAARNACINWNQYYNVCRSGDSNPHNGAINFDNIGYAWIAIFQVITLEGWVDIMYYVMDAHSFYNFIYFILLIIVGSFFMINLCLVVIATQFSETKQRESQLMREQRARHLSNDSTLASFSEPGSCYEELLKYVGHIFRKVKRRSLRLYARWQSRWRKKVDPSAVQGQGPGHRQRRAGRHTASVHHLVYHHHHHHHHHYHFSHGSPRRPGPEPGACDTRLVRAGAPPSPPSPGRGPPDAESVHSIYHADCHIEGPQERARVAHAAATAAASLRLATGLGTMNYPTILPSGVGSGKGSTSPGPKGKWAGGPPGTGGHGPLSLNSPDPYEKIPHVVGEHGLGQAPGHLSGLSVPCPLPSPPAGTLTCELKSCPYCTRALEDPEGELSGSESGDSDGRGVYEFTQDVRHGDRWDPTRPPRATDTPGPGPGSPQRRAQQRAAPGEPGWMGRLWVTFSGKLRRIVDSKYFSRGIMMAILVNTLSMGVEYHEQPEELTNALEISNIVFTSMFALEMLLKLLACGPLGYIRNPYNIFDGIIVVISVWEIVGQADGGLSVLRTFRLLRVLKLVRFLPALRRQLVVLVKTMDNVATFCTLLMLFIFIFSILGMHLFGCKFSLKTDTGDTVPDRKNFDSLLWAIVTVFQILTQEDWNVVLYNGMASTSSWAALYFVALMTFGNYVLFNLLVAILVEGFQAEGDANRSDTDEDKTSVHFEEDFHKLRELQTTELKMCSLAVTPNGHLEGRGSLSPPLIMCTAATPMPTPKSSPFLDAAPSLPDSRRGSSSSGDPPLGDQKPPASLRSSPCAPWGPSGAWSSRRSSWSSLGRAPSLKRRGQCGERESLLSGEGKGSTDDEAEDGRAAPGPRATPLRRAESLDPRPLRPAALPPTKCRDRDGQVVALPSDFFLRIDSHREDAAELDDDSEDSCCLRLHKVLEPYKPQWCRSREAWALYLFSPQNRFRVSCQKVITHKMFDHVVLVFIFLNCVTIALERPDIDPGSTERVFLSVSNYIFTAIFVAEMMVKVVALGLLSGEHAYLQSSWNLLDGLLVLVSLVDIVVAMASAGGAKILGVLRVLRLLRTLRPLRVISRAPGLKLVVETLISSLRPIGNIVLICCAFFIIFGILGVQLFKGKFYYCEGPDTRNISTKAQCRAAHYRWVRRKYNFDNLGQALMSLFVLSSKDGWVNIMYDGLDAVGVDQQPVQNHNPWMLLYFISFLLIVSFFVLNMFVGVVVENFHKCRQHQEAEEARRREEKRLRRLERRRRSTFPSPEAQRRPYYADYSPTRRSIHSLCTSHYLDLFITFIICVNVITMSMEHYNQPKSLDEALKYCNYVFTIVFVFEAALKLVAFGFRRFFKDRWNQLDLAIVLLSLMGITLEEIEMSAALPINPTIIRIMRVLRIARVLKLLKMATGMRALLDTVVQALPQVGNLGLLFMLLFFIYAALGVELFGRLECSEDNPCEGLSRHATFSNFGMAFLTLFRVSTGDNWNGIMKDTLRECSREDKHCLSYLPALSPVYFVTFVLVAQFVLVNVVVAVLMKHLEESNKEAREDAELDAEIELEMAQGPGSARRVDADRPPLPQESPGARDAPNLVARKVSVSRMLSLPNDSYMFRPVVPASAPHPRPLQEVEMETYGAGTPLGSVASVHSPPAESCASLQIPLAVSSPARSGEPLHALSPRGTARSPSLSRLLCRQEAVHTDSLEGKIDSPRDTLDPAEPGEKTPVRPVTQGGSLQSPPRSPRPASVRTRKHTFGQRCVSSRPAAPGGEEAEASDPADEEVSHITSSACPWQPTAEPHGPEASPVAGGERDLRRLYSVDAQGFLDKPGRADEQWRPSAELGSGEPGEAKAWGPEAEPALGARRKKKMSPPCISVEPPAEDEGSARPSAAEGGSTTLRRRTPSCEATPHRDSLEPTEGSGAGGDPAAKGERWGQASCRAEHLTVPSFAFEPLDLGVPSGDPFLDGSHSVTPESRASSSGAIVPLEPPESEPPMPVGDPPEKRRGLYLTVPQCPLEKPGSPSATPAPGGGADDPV
Kind of data set: Intracellular calcium concentration measurement (Fluo-4 AM) in stable cells expressing human Cav3.2 channels, buffer A / buffer B. The format is cell-based. The method, boiled down:
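State-dependent Cav3.2 inhibition compared in two buffers differing in potassium equilibrium potential (−92 vs −110 mV). Stable HEK293 line, Fluo-4 dye; compound 15 min, room temperature, dark, then KCl addition (83.8 or 91.8 mM) triggers calcium influx read 10 s; IC50 from peak increment over baseline.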
Background: A change in cytosolic calcium serves as a functional read-out for many receptors and channels.

Data set [3] has as its target T2, human Cav3.2 channels. Put plainly: Electrophysiological evaluation, whole-cell patch-clamp with automatic patch-clamp system. Type of data set: cell-based. The conditions noted are these: for inhibition at 0.3 µM: holding potential −80 mV, read-out: Cav3.2 channel current inhibition ratio at 0.3 μM of test compound (holding potential −80 mV). Summed up:
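Stable human Cav3.2 cell line, automated whole-cell patch clamp at room temperature. Peak inward current on 100 msec steps to −20 mV every 10 sec; five concentrations applied cumulatively by perfusion. Inhibition scored at 0.3 μM compound from −80 mV holding, or 3 μM from −100 mV.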

Data set [4] concerns mouse partial sciatic nerve ligation (PSNL) model. Kind of data set: Mechanical allodynia in a mouse partial sciatic nerve ligation (PSNL) model, intraperitoneal administration. The conditions noted are these: intraperitoneally administered, 20 to 30 mg/kg, compared to the vehicle group. Type of data set: in vivo. The method, then: Mechanical Allodynia in a Mouse Partial Sciatic Nerve Ligation (PSNL) Model
(§1) Production of a mouse PSNL model was carried out according to the method of Seltzer, et al. A mouse was subjected to inhalation anesthesia with isoflurane. The femoral region of the mouse was shaved and disinfected with isodine. The skin on the thighbone of the mouse was incised, the fascia underneath the skin was cut, and the biceps femoris muscle was divided at a site between the heads of muscles. The sciatic nerve underneath the incision was checked, and then the sciatic nerve was detached without damaging the nerve. The needle of an 8-0 silk suture with a needle was passed through the sciatic nerve so as to penetrate through the nerve, and thus a portion of about ½ to ⅓ of the sciatic nerve was ligated. The skin was sutured, and the mouse was kept for about 7 days. The surgery of a Sham control mouse was performed only for checking of the sciatic nerve, and the skin was sutured.
(§2) The measurement of pain threshold was carried out after the mouse was transferred into a cage for measurement and was waited until exploratory behavior had disappeared. […] The 50% threshold was calculated by an up-down method by referring to the method of Chaplan, et al. (Quantitative assessment of tactile allodynia in the […]. J Neurosci Methods, 53, 1994, 55-63). […]

For data set [5], the system named is mouse PSNL model. Put plainly: Mechanical allodynia in mouse PSNL model, peroral administration. To be noted: perorally administered, 10 mg/kg and 30 mg/kg, compared to the vehicle group. The format is in vivo. The method, then: Mechanical Allodynia in Mouse PSNL Model
as §1, §2

Setting [6] is: Table 1, buffer A, equilibrium potential of potassium −92 mV, read-out: Inhibitory action of buffer A (inactivated state).
[7] abbreviates: Table 1, buffer B, equilibrium potential of potassium −110 mV, read-out: Inhibitory action of buffer B (resting state or closed state).
Setting [8] is: Tables 2 to 6, buffer A, equilibrium potential of potassium −92 mV, read-out: Inhibitory action of buffer A (inactivated state).

T1 sequence (P08684 whole entry): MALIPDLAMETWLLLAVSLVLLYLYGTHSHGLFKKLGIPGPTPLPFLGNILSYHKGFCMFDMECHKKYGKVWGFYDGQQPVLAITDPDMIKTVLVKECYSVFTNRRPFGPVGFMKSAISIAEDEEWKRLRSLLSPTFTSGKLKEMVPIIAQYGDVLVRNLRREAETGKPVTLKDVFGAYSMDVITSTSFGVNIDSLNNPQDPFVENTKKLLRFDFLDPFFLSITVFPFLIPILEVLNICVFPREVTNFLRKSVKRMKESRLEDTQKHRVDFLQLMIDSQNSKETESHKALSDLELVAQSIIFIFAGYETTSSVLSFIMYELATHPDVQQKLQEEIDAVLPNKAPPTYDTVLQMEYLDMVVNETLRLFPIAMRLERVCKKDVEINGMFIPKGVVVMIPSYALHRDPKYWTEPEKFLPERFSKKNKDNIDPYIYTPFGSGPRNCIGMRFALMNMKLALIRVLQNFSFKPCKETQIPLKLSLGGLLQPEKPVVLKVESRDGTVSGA

Regarding `C[C@@H](NC(=O)C1CC1c1nc2ccccc2[nH]1)c1ccc(OCC(F)(F)F)s1` (single isomer, unassigned) [Example 3A], the “CYP3A4 activity inhibition ratio at 10 μM of test compound” value (shortened to “CYP3A4 activity inhibition ratio”) in data set [1] came out at 12.7%. For the same compound, in data set [2] (setting [6]), the IC50 is not above 0.1 µM. In addition, the IC50 in data set [2] (setting [7]) is more than 10 µM. Also, in data set [3], the inhibition at 0.3 µM was 60% and the “Cav3.2 channel current inhibition ratio at 3 μM of test compound (holding potential −100 mV)” value (from here on “Cav3.2 channel current inhibition ratio”) stood at 13%. Further, the “mechanical allodynia (pain threshold, von Frey filament test)” value in data set [4] is reported as “suppressed mechanical allodynia statistically significantly”.
With `C[C@@H](NC(=O)[C@@H]1CCN(CC(=O)NC(C)(C)C)C1)c1ccc(OCC(F)(F)F)s1.Cl` [Example 15, (R)-1-(2-(tert-butylamino)-2-oxoethyl)-N—((R)-1-(5-(2,2,2-trifluoroethoxy)thiophen-2-yl)ethyl)pyrrolidine-3-carboxamide hydrochloride], the “CYP3A4 activity inhibition ratio” value in data set [1] is listed as 21.9%. The IC50 in data set [2] (setting [6]) was 0.1 to 1 µM; in data set [2] (setting [7]), 1 to 10 µM. Also, in data set [3], the inhibition at 0.3 µM came to 33%.
As for `C[C@@H](NC(=O)[C@@H]1CCN(CC(=O)NC23CC4CC(CC(C4)C2)C3)C1)c1ccc(OCC(F)(F)F)s1` [Example 36, (R)-1-(2-(adamantan-1-ylamino)-2-oxoethyl)-N—((R)-1-(5-(2,2,2-trifluoroethoxy)thiophen-2-yl)ethyl)pyrrolidine-3-carboxamide], in data set [1], the “CYP3A4 activity inhibition ratio” value is given as 81.0%. Moreover, the IC50 in data set [2] (setting [8]) was not above 0.1 µM. Moreover, the inhibition at 0.3 µM in data set [3] amounted to 94%.
As to `C[C@@H](NC(=O)[C@@H]1CCN(CC(=O)Nc2cc(Cl)cc(Cl)c2)C1)c1ccc(OCC(F)(F)F)s1` [Example 42, (R)-1-(2-((3,5-dichlorophenyl)amino)-2-oxoethyl)-N—((R)-1-(5-(2,2,2-trifluoroethoxy)thiophen-2-yl)ethyl)pyrrolidine-3-carboxamide], in data set [1], the “CYP3A4 activity inhibition ratio” value is given as 77.9%. Also, the IC50 in data set [2] (setting [8]) was not above 0.1 µM. In addition, the inhibition at 0.3 µM in data set [3] was 87%.
The matching figures for `C[C@@H](NC(=O)[C@@H]1CCN(CC(=O)C(C)(C)C)C1)c1ccc(OCC(F)(F)F)s1` [Example 43, (R)-1-(3,3-dimethyl-2-oxobutyl)-N—((R)-1-(5-(2,2,2-trifluoroethoxy)thiophen-2-yl)ethyl)pyrrolidine-3-carboxamide]: 23.6%, 0.1 to 1 µM and 32%.
The matching figures for `C[C@@H](NC(=O)[C@H]1C[C@@H]1c1nc2ccccc2[nH]1)c1ccc(C(=O)N2CCC(F)(F)C2)s1` [Example 60, Trans-2-(1H-benzo[d]imidazol-2-yl)-N—((R)-1-(5-(3,3-difluoropyrrolidine-1-carbonyl)thiophen-2-yl)ethyl)cyclopropane-1-carboxamide]: −1.2%, 0.1 to 1 µM and 48%.
Turning to `C[C@@H](NC(=O)[C@H]1C[C@@H]1c1nc2ccccc2[nH]1)c1cc2cc(F)ccc2[nH]1` [Example 63, (1S,2S)-2-(1H-benzo[d]imidazol-2-yl)-N—((R)-1-(5-fluoro-1H-indol-2-yl)ethyl)cyclopropane-1-carboxamide], the “CYP3A4 activity inhibition ratio” value in data set [1] is 45.7%. Besides, the IC50 in data set [2] (setting [8]) is not above 0.1 µM. In addition, in data set [3], the inhibition at 0.3 µM worked out at 91%.
In the case of `C[C@@H](NC(=O)[C@H]1C[C@@H]1c1nc2ccccc2[nH]1)c1cc2cc(F)ccc2o1` [Example 65, (1S,2S)-2-(1H-benzo[d]imidazol-2-yl)-N—((R)-1-(5-fluorobenzofuran-2-yl)ethyl)cyclopropane-1-carboxamide], the “CYP3A4 activity inhibition ratio” value in data set [1] is 4.2%. Also, in data set [2] (setting [8]), the IC50 is not above 0.1 µM. The “mechanical allodynia (pain threshold, von Frey filament test)” value in data set [5] is “suppressed mechanical allodynia statistically significantly”. Besides, in data set [3], the inhibition at 0.3 µM stood at 81% and the “Cav3.2 channel current inhibition ratio” value is 49%.
Consider `C[C@@H](NC(=O)[C@H]1C[C@@H]1c1nc2ccccc2[nH]1)c1cc2cc(F)c(F)cc2o1` [Example 91, (1S,2S)-2-(1H-benzo[d]imidazol-2-yl)-N—((R)-1-(5,6-difluorobenzofuran-2-yl)ethyl)cyclopropane-1-carboxamide], for which, in data set [1], the “CYP3A4 activity inhibition ratio” value is recorded as 20.1%. Also, in data set [2] (setting [8]), the IC50 is not above 0.1 µM. The inhibition at 0.3 µM in data set [3] is 72%.
Regarding `C[C@@H](NC(=O)[C@H]1C[C@@H]1c1nc2ccccc2[nH]1)c1cc2c(F)cc(F)cc2o1` [Example 92, (1S,2S)-2-(1H-benzo[d]imidazol-2-yl)-N—((R)-1-(4,6-difluorobenzofuran-2-yl)ethyl)cyclopropane-1-carboxamide], the “CYP3A4 activity inhibition ratio” value in data set [1] was 23.6%. Moreover, in data set [2] (setting [8]), the IC50 is not above 0.1 µM. For the same compound, in data set [3], the inhibition at 0.3 µM was 74%.
As to `C[C@@H](NC(=O)[C@H]1C[C@@H]1c1nc2ccccc2[nH]1)c1cc2ccc(F)cc2o1` [Example 100, (1S,2S)-2-(1H-benzo[d]imidazol-2-yl)-N—((R)-1-(6-fluorobenzofuran-2-yl)ethyl)cyclopropane-1-carboxamide], in data set [1], the “CYP3A4 activity inhibition ratio” value was found to be 27.9%. Further, the IC50 in data set [2] (setting [8]) was not above 0.1 µM. For the same compound, in data set [3], the inhibition at 0.3 µM came to 90% and the “Cav3.2 channel current inhibition ratio” value is given as 52%.
Take `C[C@@H](NC(=O)[C@H]1C[C@@H]1c1nc2ccccc2[nH]1)c1nc2cc(F)ccc2o1` [Example 105, (1S,2S)-2-(1H-benzo[d]imidazol-2-yl)-N—((R)-1-(5-fluorobenzo[d]oxazol-2-yl)ethyl)cyclopropane-1-carboxamide]: in data set [1], the “CYP3A4 activity inhibition ratio” value is recorded as 21.2%. Further, in data set [2] (setting [8]), the IC50 lay in the range of 0.1 to 1 µM. Moreover, the inhibition at 0.3 µM in data set [3] worked out at 58%.
Turning to `C[C@@H](NC(=O)[C@H]1C[C@@H]1c1nc2ccccc2[nH]1)c1nc2ccc(F)cc2o1` [Example 114, (1S,2S)-2-(1H-benzo[d]imidazol-2-yl)-N—((R)-1-(6-fluorobenzo[d]oxazol-2-yl)ethyl)cyclopropane-1-carboxamide], the “CYP3A4 activity inhibition ratio” value in data set [1] is recorded as 30.0%. In addition, in data set [2] (setting [8]), the IC50 was in the range of 0.1 to 1 µM. Further, the inhibition at 0.3 µM in data set [3] is 32%.
